Experimental findings from patent US9446081B2, “Pharmaceutical composition for preventing and treating complications of diabetes containing a traditional oriental medicine extract or a fraction thereof as an active ingredient” (KOREA INSTITUTE OF ORIENTAL MEDICINE, priority 2011, dated 2016) are described below.

In brackets after ≈: the same amount, converted by molar mass.

Data set [1] relates to advanced glycation endproducts production (bovine serum albumin + fructose/glucose). Put plainly: Inhibiting effect on advanced glycation endproducts production (BSA with fructose/glucose, fluorescence). Type of data set: biochemical. The following applies: 14 days at 37° C. The protocol:
Inhibiting effect of the extract of Homonoia riparia Lour. obtained in <Example 1> and each fraction thereof (normal-hexane, ethyl acetate, normal-butanol, or water fraction) obtained in <Example 2> on the advanced glycation endproducts production was investigated in vitro. Bovine serum albumin (BSA, Sigma, USA) was used as a protein source. BSA was added to 50 mM phosphate buffer (pH 7.4) to make the concentration 10 mg/ml. 0.2 M fructose/0.2 M glucose mixed solution was used as a sugar source. The fructose/glucose mixed solution was added to the BSA solution prepared above. The ethanol extract of Homonoia riparia Lour. was prepared at the concentration of 2.5 μg/ml, 5 μg/ml, or 10 μg/ml. The normal-hexane fraction was prepared at the concentration of 10 μg/ml, 25 μg/ml, or 50 μg/ml. The ethyl acetate fraction was prepared at the concentration of 1.25 μg/ml, 2.5 μg/ml, or 5 μg/ml. The normal-butanol fraction was prepared at the concentration of 1.25 μg/ml, 2.5 μg/ml, or 5 μg/ml. The water fraction was prepared at the concentration of 2.5 μg/ml, 5 μg/ml, or 10 μg/ml. All the compounds were dissolved in dimethylsulfoxide (DMSO), to which 15% tween 80 was added. At that time, the final DMSO content was 0.2%. The prepared extract or the fractions thereof were added to the BSA/sugar mixed solution, followed by culture for 14 days at 37° C. At that time, 0.02% sodium azide and antimycotics were added as an anti-bacterial agent and an anti-fungal agent. The BSA/sugar mixed solution was cultured, which was used as the control. The extract or the fractions thereof were used as the blank. In the meantime, aminoguanidine was used as the positive control, which was the index for the effect comparison. Particularly, aminoguanidine was dissolved in distilled water, followed by culture by the same manner as described above at the concentration of 18.5 μg/ml, 37 μg/ml, or 55.5 μg/ml for 14 days. All the culture solutions were prepared 4 of each to minimize error. After 14 days of culture, the amount of the advanced glycation endproducts was measured. The advanced glycation endproducts were fluorescent brown and had physiochemical property suitable for cross-linking, and also had ligands which could be recognized by cell membrane receptors. The amount of the advanced glycation endproducts having the said properties was measured by a microplate reader (Excitation: 350 nm, Emission: 450 nm) to evaluate the inhibiting effect on the advanced glycation endproducts production (Vinson, J. A. et al., J. Nutr. Biochem., 7: 659-663, 1996). Inhibition rate of the advanced glycation endproducts production was calculated by the following mathematical formula 1. […]

Data set [2] has as its target AGE-BSA cross-linked to collagen (Bos taurus, UniProt P02769). Put plainly: In vitro AGE cross-linking breaking effect (AGE-BSA on collagen-coated plate, ELISA). The settings on record: 4 hours at 37° C.; for AGE-BSA (%) remaining cross-linked: OD of treated well/untreated well x100. Type of data set: biochemical. The protocol: 1.0 μg of AGE-BSA was distributed in a collagen-coated 96-well microtitre plate, followed by culture for 4 hours at 37° C. The plate was then washed with PBS containing 0.05% tween three times to eliminate non-conjugated AGE-BSA. Homonoia riparia Lour. The extract of Homonoia riparia Lour. or ALT-711 (4,5-dimethyl-3-(2-oxo-2-phenylethyl)-thiazolium chloride; Alteon Inc., Ramsey, N.J.) known as the AGEs cross-linking breaker was 2-fold diluted serially from the concentration of 1000 μg/ml to 1 μg/ml, which was added to each well (triplicate), followed by culture for 4 hours at 37° C. Upon completion of the culture, each well was washed with PBS containing 0.05% tween three times. To detect the AGE-BSA remaining as cross-linked to collagen, rabbit polyclonal anti-AGE-BSA antibody (MBL international, Woburn, Mass.) diluted at the ratio of 1:250 was distributed in each well, followed by culture for 1 hour at 37° C. One hour later, the plate was washed with PBS containing 0.05% tween three times, to which horseradish peroxidase-linked goat anti-rabbit antibody (Sigma, USA) was applied. Color development was induced by using 3,3′,5,5′-tetramethylbenzidine (TMB) as a substrate and OD450 was measured. Breaking % of AGE-BSA cross-linking was calculated by the following mathematical formula 2. AGE-BSA (%)=OD of sample treated well/OD of sample untreated well×100 [Mathematical Formula 2]
(In an ELISA, binding on a coated surface is turned into a signal by an enzyme label.)

In data set [3] the target is T1, aldose reductase from lens of SD rat (Rattus norvegicus, UniProt P07943).
T1 construct: natural aldose reductase from the eyeball of SD rat; from tissue; host or cells: Sprague-Dawley rat lens, homogenised; centrifuged and filtered supernatant
Put plainly: Inhibiting effect on aldose reductase (AR) activity. It is filed as biochemical, Sprague-Dawley rat. The procedure:
Inhibiting effect of the extract of Homonoia riparia Lour. or the fractions (normal-hexane fraction, ethyl acetate fraction, normal-butanol fraction, and water fraction) thereof on aldose reductase activity was investigated in vitro. To obtain natural aldose reductase from the eyeball of SD rat (Sprague-Dawley rat, 250˜280 g) according to the method of Dufrane (1984), 135 mM Na, K-phosphate buffer (pH 7.0), and 10 mM 2-mercaptoethanol were mixed with the extracted lens, which was ground by using a homogenizer and a sonicater. After performing centrifugation at 14,000 rpm for 30 minutes, the supernatant was filtered by using 0.2 μm filter. All the procedures were performed at 4° C. Quantification was performed by Lowry method using BSA as a protein source of the enzyme. The mixture comprising 135 mM Na, K-phosphate buffer (pH 7.0), 100 mM lithium sulfate, 0.03 mM NADPH, 0.04 mM DL-glycealdehyde and 100 μg/ml enzyme mixture was dissolved in 0.1% DMSO, which was distributed to 50 μl of each sample diluted at different concentrations by 50 μl to make the total volume 1 ml, followed by culture for 10 minutes at 37° C. The experimental blank group was added with the mixture excluding 0.04 mM DL-glycealdehyde, and STD was treated with the sample including 135 mM Na, K-phosphate buffer (pH 7.0), 100 mM lithium sulfate, and 50 μl of NADP (0.2˜5 μM). The reaction was terminated by adding 0.3 ml of 0.5 N HCl. 1 ml of 6 M NaOH including 10 mM imidazole was added thereto, followed by reaction at 60° C. for 10 minutes. Then, the conversion of NADP to fluorescent product was measured. The examination was performed in triplicate. The effect was measured by using a spectrofluorophotometric detector (Bio-TEK, Synergy HT, USA) (Ex. 360 nm, Em. 460 nm) and presented as IC50. The extract of Homonoia riparia Lour. was prepared at the concentration of 1 μg/ml, 2.5 μg/ml, or 5 μg/ml. The normal-hexane fraction was prepared at the concentration of 2.5 μg/ml, 5 μg/ml, or 10 μg/ml. The ethyl acetate fraction was prepared at the concentration of 0.5 μg/ml, 1 μg/ml, or 2.5 μg/ml. The normal-butanol fraction was prepared at the concentration of 1 μg/ml, 2.5 μg/ml, or 5.0 μg/ml. The water fraction was prepared at the concentration of 2.5 μg/ml, 5 μg/ml, or 10 μg/ml. As the comparative control group, one of the excellent aldose reductase inhibitors, 3,3-tetramethyleneglutaric acid, was prepared at the concentration of 3.72 μg/ml, 4.66 μg/ml, or 5.59 μg/ml. Then, AR inhibiting effect of each sample was measured.

Sequence of AGE-BSA cross-linked to collagen (P02769 25-607): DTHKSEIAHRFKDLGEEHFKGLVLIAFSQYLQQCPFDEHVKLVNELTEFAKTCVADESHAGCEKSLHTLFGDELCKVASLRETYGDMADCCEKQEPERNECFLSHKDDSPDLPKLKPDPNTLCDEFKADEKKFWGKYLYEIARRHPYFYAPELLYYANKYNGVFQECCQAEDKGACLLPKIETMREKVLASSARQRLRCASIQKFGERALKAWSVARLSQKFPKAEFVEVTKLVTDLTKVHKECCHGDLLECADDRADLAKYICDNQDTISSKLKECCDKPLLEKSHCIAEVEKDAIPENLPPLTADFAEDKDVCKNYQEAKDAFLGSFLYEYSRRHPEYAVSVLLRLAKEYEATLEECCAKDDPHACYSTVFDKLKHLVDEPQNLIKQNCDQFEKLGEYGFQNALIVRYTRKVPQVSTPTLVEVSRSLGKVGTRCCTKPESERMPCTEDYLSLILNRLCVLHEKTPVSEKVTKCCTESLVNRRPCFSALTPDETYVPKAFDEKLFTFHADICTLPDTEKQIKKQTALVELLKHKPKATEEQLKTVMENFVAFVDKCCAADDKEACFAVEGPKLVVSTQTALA

`N=C(N)NN` [Aminoguanidine]: in data set [1], the “IC50 (μg/ml) 14th day, advanced glycation endproducts production” value came to 52.96 µg/mL (≈ 715 µM). Besides, the results for the “Inhibition (%) 14th day” value in data set [1] (conc. 18.5 μg/ml), in data set [1] (conc. 37 μg/ml) and in data set [1] (conc. 55.5 μg/ml) were 15.50 ± 1.79%, 33.56 ± 0.51% and 52.81 ± 2.81%, respectively.

`Cc1sc[n+](CC(=O)c2ccccc2)c1C.[Cl-]` [ALT-711, 4,5-dimethyl-3-(2-oxo-2-phenylethyl)-thiazolium chloride]: in data set [2] (read-out: IC50 (μg/ml), AGE-BSA cross-linking breaking), the IC50 was above 3730 µM. The “AGE-BSA (%) remaining cross-linked” value in data set [2] (conc. 10 μg/ml) is 100.18 ± 18.4%; in data set [2] (conc. 50 μg/ml), 100.13 ± 4.42%; in data set [2] (conc. 100 μg/ml) it was 100.21 ± 5.46%; in data set [2] (conc. 1000 μg/ml), 51.77 ± 9.54%.

Consider `O=C(O)CC1(CC(=O)O)CCCC1` [3,3-tetramethyleneglutaric acid], for which the inhibition – broadly, the share of the control response that was lost under treatment – at 3.72 µg/mL in data set [3] (conc. 3.72 μg/ml) is 33 ± 4.36%. For the same compound, the inhibition at 4.66 µg/mL in data set [3] (conc. 4.66 μg/ml) turned out to be 40.3 ± 1.36%. In data set [3] (conc. 5.59 μg/ml), the inhibition at 5.59 µg/mL was found to be 51.6 ± 0.78%. In addition, the IC50 in data set [3] (rat lens enzyme, read-out: Inhibiting effect (IC50) (μg/ml), aldose reductase (converted)) is 29.1 µM.
